≈ marks a conversion by molar mass, not a printed value.
Tests used:
Assay type in all cases: physicochemical
[1] = Solubility at 25° C. by HPLC of filtrates after equilibration of Form A in solvents; conditions: for solubility: 25 °C, organic solvent or mixture, thermodynamic from solid
[2] = Dynamic vapour sorption (DVS); conditions: 25° C.
Procedure: Sorption isotherms were obtained using a Hiden Isochema moisture sorption analyser (model IGAsorp), controlled by IGAsorp Systems Software V6.50.48. The sample was maintained at a constant temperature (25° C.) by the instrument controls. The humidity was controlled by mixing streams of dry and wet nitrogen, with a total flow of 250 ml·min^−1. The instrument was verified for relative humidity content by measuring three calibrated Rotronic salt solutions (10-50-88%). The weight change of the sample was monitored as a function of humidity by a microbalance (accuracy +/−0.005 mg). A defined amount of sample was placed in a tared mesh stainless steel basket under ambient conditions. A full experimental cycle typically consisted of three scans (sorption, desorption and sorption) at a constant temperature (25° C.) and 10% RH intervals over a 0-90% range (60 minutes for each humidity level).

[3] = Anti-solvent addition crystallisation at 60° C., observations and form fate by XRPD
Procedure: The equilibration of Form A in a range of solvents with thermal modulation indicated a range of suitable solvents and anti-solvents. Consequently, Form A was dissolved in a range of four solvents at an elevated temperature, clarified and charged with anti-solvent at the elevated temperature to assess the propensity of the compound towards anti-solvent-driven crystallisation.
2-(2,6-dichlorophenyl)-5-[4-(1,1-dioxo-1,4-thiazinane-4-carbonyl)anilino]oxazole-4-carboxamide Form A, 4×150-152 mg, was weighed into four crystallisation tubes. Four different solvents (see Table 8) were then charged to the solids and the resulting mixtures heated to 60° C. Where suspensions persisted, additional solvent was charged to achieve dissolution. Upon dissolution of the four mixtures, the solutions were clarified and aliquots containing ca. 30 mg of the compound were charged to four crystallisation tubes.
To each of the four aliquots was charged an anti-solvent (see Table 8), ca. 5 vol., at 60° C. and immediate observations were made. Observations were made after equilibration for 1 hour before additional anti-solvent, 5 vol., was charged to all mixtures. Where suspensions or immiscible mixtures had formed, no further anti-solvent was charged. To all solutions and hazes, additional anti-solvent up to 20 vol. total charge was added.
The mixtures were equilibrated at 60° C. for another hour before cooling to 25° C. over ca. 3 hours and equilibrated for ca. 14½ hours. […] Upon isolation, all solids were dried in vacuo under air for ca. 1 hour and then dried in the oven in vacuo at 45° C. for 70 hours.

Solubility at 25° C. ([1]; 2-Chlorobutane): 290 µg/mL (≈ 0.569 mM) | solubility ([1]; 4:1 IPA/water, 4:1 IPA/water): 7650 µg/mL (≈ 15 mM) | solubility ([1]; 4:1 MeCN/water, 4:1 MeCN/water): 19800 µg/mL (≈ 38.8 mM) | Solubility at 25° C. ([1]; 4:1 THF/water): >67000 µg/mL | Solubility at 25° C. ([1]; Anisole): 10610 µg/mL (≈ 20.8 mM) | solubility ([1]; CPME): 1870 µg/mL (≈ 3.67 mM) | Solubility at 25° C. ([1]; Cyclohexane): 10 µg/mL (≈ 0.0196 mM) | Solubility at 25° C. ([1]; DCM): 22830 µg/mL (≈ 44.8 mM) | solubility ([1]; EtOAc): 6640 µg/mL (≈ 13 mM) | solubility ([1]; EtOH): 5200 µg/mL (≈ 10.2 mM) | solubility ([1]; IPA): 2450 µg/mL (≈ 4.81 mM) | solubility ([1]; MEK): 6080 µg/mL (≈ 11.9 mM) | solubility ([1]; MIBK): 7400 µg/mL (≈ 14.5 mM) | solubility ([1]; MeCN): 9160 µg/mL (≈ 18 mM) | solubility ([1]; MeOH): 2520 µg/mL (≈ 4.95 mM) | Solubility at 25° C. ([1]; Nitromethane): 20520 µg/mL (≈ 40.3 mM) | Solubility at 25° C. ([1]; TBME): 700 µg/mL (≈ 1.37 mM) | Solubility at 25° C. ([1]; THF): 33300 µg/mL (≈ 65.4 mM) | Solubility at 25° C. ([1]; Water): 60 µg/mL (≈ 0.118 mM) | solubility ([1]; benzotrifluoride): 160 µg/mL (≈ 0.314 mM) | solubility ([1]; chlorobenzene): 1870 µg/mL (≈ 3.67 mM) | solubility ([1]; iPrOAc): 6960 µg/mL (≈ 13.7 mM) | solubility ([1]; toluene): 1120 µg/mL (≈ 2.2 mM) | DVS total weight gain upon sorption ([2]; from 0 to 90% RH): ca. 3.25 wt % | DVS weight reduction upon the first desorption ([2]; from 50 to 0% RH): ca. 2.75 wt % | Observation on outcome ([3]; ID A1, THF/water, 4:1 10 vol., Cyclohexane, 25° C., 20 vol, 19 Hrs): Susp. | Observation on outcome ([3]; ID A1, THF/water, 4:1 10 vol., Cyclohexane, 60° C., 5 vol. anti-solvent, 1 Hr): Susp. | Observation on outcome ([3]; ID A1, THF/water, 4:1 10 vol., Cyclohexane, 60° C., 5 vol. anti-solvent, Immediate): Gum | Observation on outcome ([3]; ID A1, THF/water, 4:1 10 vol., Cyclohexane, 60° C., 10 vol. anti-solvent): Susp. | Observation on outcome ([3]; ID A2, THF/water, 4:1 10 vol., Heptane, 25° C., 20 vol, 19 Hrs): Gummy | Observation on outcome ([3]; ID A2, THF/water, 4:1 10 vol., Heptane, 60° C., 5 vol. anti-solvent, 1 Hr): Susp. | Observation on outcome ([3]; ID A2, THF/water, 4:1 10 vol., Heptane, 60° C., 5 vol. anti-solvent, Immediate): Gum | Observation on outcome ([3]; ID A2, THF/water, 4:1 10 vol., Heptane, 60° C., 10 vol. anti-solvent): Susp. | Observation on outcome ([3]; ID A3, THF/water, 4:1 10 vol., Benzotrifluoride, 25° C., 20 vol, 19 Hrs): Susp. | Observation on outcome ([3]; ID A3, THF/water, 4:1 10 vol., Benzotrifluoride, 60° C., 5 vol. anti-solvent, 1 Hr): Susp. | Observation on outcome ([3]; ID A3, THF/water, 4:1 10 vol., Benzotrifluoride, 60° C., 5 vol. anti-solvent, Immediate): Susp. | Observation on outcome ([3]; ID A3, THF/water, 4:1 10 vol., Benzotrifluoride, 60° C., 10 vol. anti-solvent): Susp. | Observation on outcome ([3]; ID A4, THF/water, 4:1 10 vol., 2-Chlorobutane, 25° C., 20 vol, 19 Hrs): Susp. | Observation on outcome ([3]; ID A4, THF/water, 4:1 10 vol., 2-Chlorobutane, 60° C., 5 vol. anti-solvent, 1 Hr): Susp. | Observation on outcome ([3]; ID A4, THF/water, 4:1 10 vol., 2-Chlorobutane, 60° C., 5 vol. anti-solvent, Immediate): Susp. | Observation on outcome ([3]; ID A4, THF/water, 4:1 10 vol., 2-Chlorobutane, 60° C., 10 vol. anti-solvent): Susp. | Observation on outcome ([3]; ID B1, THF 25 vol., Cyclohexane, 25° C., 20 vol, 19 Hrs): Susp. | Observation on outcome ([3]; ID B1, THF 25 vol., Cyclohexane, 60° C., 5 vol. anti-solvent, 1 Hr): Susp. | Observation on outcome ([3]; ID B1, THF 25 vol., Cyclohexane, 60° C., 5 vol. anti-solvent, Immediate): Gum→Soln. | Observation on outcome ([3]; ID B1, THF 25 vol., Cyclohexane, 60° C., 10 vol. anti-solvent): Susp. | Observation on outcome ([3]; ID B2, THF 25 vol., Heptane, 25° C., 20 vol, 19 Hrs): Susp. | Observation on outcome ([3]; ID B2, THF 25 vol., Heptane, 60° C., 5 vol. anti-solvent, 1 Hr): Susp. | Observation on outcome ([3]; ID B2, THF 25 vol., Heptane, 60° C., 5 vol. anti-solvent, Immediate): Gum→Soln. | Observation on outcome ([3]; ID B2, THF 25 vol., Heptane, 60° C., 10 vol. anti-solvent): Susp. | Observation on outcome ([3]; ID B3, THF 25 vol., Benzotrifluoride, 25° C., 20 vol, 19 Hrs): Susp. | Observation on outcome ([3]; ID B3, THF 25 vol., Benzotrifluoride, 60° C., 5 vol. anti-solvent, 1 Hr): Susp. | Observation on outcome ([3]; ID B3, THF 25 vol., Benzotrifluoride, 60° C., 5 vol. anti-solvent, Immediate): Soln. | Observation on outcome ([3]; ID B3, THF 25 vol., Benzotrifluoride, 60° C., 10 vol. anti-solvent): Susp. | Observation on outcome ([3]; ID B4, THF 25 vol., 2-Chlorobutane, 25° C., 20 vol, 19 Hrs): Susp. | Observation on outcome ([3]; ID B4, THF 25 vol., 2-Chlorobutane, 60° C., 5 vol. anti-solvent, 1 Hr): Susp.
SMILES: NC(=O)c1nc(-c2c(Cl)cccc2Cl)oc1Nc1ccc(C(=O)N2CCS(=O)(=O)CC2)cc1 [Form A, 2-(2,6-dichlorophenyl)-5-[4-(1,1-dioxo-1,4-thiazinane-4-carbonyl)anilino]oxazole-4-carboxamide]

From US12545652B2, “Crystalline forms of a TYK2 inhibitor” (Sareum Limited, priority 2020, dated 2026)
